Measurements from patent US8163768B2, “1,4-dihydropyridine-fused heterocycles, process for preparing the same, use and compositions containing them” (Aventis Pharma S.A.., priority 2005, dated 2012).
Where a name gives a salt, the structure may show the parent alone.

How the values were obtained:
Aurora1 (Aurora-B) = biological target: T1, Aurora1 (Aurora-B) (Homo sapiens, UniProt Q96GD4); experiment: Aurora 1 (Aurora B) kinase radioactivity scintillation assay using nickel chelate Flash plates; format: biochemical; settings: 10 nM Aurora-B (co expressed with C3 fragment of INCEP), 500 nM NuMA substrate, 1 μM ATP with [33P] ATP, 5 mM MgCl2, 30 minutes, 37° C.
T1 construct: Aurora-B: the full length protein (His tagged in N-terminal) has been co expressed in SF9 cells; poly-histidine (N); made in house; host or cells: SF9 cells
Protocol: (§1) Aurora 1 and 2 (Respectively. Aurora B and A)
(§2) The inhibitory effect of compounds with respect to the Aurora 1 and 2 kinases is determined with a radioactivity scintillation assay using nickel chelate.
(§3) The kinase activity of Aurora is measured by the phosphorylation of NuMA-histidine substrate in the presence of radiolabelled ATP ([^33P] ATP) using 96 well Flash plates where the nickel-chelate is linked to the surface of the microplate. The amount of ^33P incorporated to the substrate NuMA is proportional to the aurora activity.
(§4) The Flash plates used are nickel-chelate 96 well plates (Perkin Elmer, model SMP107).
(§5) The products to be evaluated are incubated in a 100 μl reaction volume per well in the presence of 10 nM of Aurora-B or Aurora-A, 500 nM of NuMA substrate in the following buffer: 50 mM of NaCl, 5 mM MgCl2, (Aurora-B) or 10 mM MgCl2 (Aurora-A) and 1 mM of DTT at 37° C.
(§6) 80 μL of enzyme/substrate incubation buffer is distributed in each well, followed by 10 μL of solution of compound to be measured with various concentrations. The reaction is started by adding 1 μM of ATP (final concentration) containing 0.2 μCi of [^33P] ATP (10 μL). After 30 minutes of incubation the reaction is stopped by removal of the reaction mixture and each well is washed twice with 300 μl of buffer Tris/HCl. The radioactivity is measured in each well using a Packard Top count scintillation counter instrument.
(§7) The enzymatic activity is expressed as counts per minute obtained in 30 minutes after subtraction of the background noise (reaction medium without enzyme). The measurement is expressed as percentage of inhibition of Aurora activity versus the control. To generate IC50 values, compounds of the invention are tested at different concentration and the percentage of inhibition are plotted as function of compound concentration, IC50s are calculated using the Xlfit 4 curve fitting software.

Aurora2 (Aurora-A) = biological target: T2, Aurora2 (Aurora-A) (Homo sapiens, UniProt O14965); experiment: Aurora 2 (Aurora A) kinase radioactivity scintillation assay using nickel chelate Flash plates; format: biochemical; settings: 10 nM Aurora-A, 500 nM NuMA substrate, 1 μM ATP with [33P] ATP, 10 mM MgCl2, 30 minutes, 37° C.
T2 construct: Aurora-A: the full length recombinant protein including an N-terminal poly-histidine tail has been expressed in E. coli; poly-histidine (N); made in house; host or cells: E. coli
T2 sequence (O14965 1-403): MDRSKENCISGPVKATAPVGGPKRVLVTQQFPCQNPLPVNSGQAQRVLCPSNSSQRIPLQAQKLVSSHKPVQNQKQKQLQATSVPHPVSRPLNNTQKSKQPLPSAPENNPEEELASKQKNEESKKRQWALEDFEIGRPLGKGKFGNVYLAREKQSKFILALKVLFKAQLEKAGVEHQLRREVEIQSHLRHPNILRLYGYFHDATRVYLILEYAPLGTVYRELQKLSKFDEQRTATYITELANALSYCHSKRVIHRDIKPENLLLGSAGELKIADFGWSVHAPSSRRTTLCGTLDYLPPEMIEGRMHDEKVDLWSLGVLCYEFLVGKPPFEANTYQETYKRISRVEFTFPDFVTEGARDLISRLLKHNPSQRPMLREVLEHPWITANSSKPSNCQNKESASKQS
Protocol: as §1, §2, §3, §4, §5, §6, §7

T1 sequence (Q96GD4 whole entry, species assumed, the tested form may be a part): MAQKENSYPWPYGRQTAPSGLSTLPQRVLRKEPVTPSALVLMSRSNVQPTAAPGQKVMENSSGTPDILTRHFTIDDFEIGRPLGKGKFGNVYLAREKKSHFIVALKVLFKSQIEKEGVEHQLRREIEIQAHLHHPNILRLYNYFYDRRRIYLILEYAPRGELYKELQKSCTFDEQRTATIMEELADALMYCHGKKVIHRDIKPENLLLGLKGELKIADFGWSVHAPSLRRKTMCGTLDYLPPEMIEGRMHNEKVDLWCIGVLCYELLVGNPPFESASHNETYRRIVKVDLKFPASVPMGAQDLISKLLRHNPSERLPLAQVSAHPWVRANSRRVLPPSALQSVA
T1 sequence (Q9NQS7 821-918 partner limits assumed, species assumed): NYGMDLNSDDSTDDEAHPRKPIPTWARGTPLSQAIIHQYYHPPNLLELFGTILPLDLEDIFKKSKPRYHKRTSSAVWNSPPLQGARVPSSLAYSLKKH

SMILES | IC50 (Aurora1 (Aurora-B)) [nM] | IC50 (Aurora2 (Aurora-A)) [nM]
CCOC(=O)c1[nH]cc2c1NC1=C(C(=O)CNC1)C2c1ccc(Sc2nc3cc(F)ccc3[nH]2)o1 (stereo not drawn) [Example 149, 9-[5-(5-Fluoro-1H-benzimidazol-2-ylsulfanyl)-furan-2-yl]-8-oxo-4,5,6,7,8,9-hexahydro-2H-pyrrolo[3,4-b]-1,7-naphthyridine-3-carboxylic acid ethyl ester hydrochloride] | 11 | 55
CCOC(=O)c1[nH]cc2c1NC1=C(C(=O)CNC1)C2c1ccc(Sc2nc3cc(F)c(Cl)cc3[nH]2)o1 (stereo not drawn) [Example 147, 9-[5-(6-Chloro-5-fluoro-1H-benzimidazol-2-ylsulfanyl)-furan-2-yl]-8-oxo-4,5,6,7,8,9-hexahydro-2H-pyrrolo[3,4-b]-1,7-naphthyridine-3-carboxylic acid ethyl ester hydrochloride] | 9 | 67
CCOC(=O)c1[nH]cc2c1NC1=C(C(=O)CCC1)C2c1ccc(Sc2nc3cc(F)c(Cl)cc3[nH]2)o1 (stereo not drawn) [Example 146, 9-[5-(6-Chloro-5-fluoro-1H-benzimidazol-2-ylsulfanyl)-furan-2-yl]-8-oxo-4,5,6,7,8,9-hexahydro-2H-pyrrolo[3,4-b]quinoline-3-carboxylic acid ethyl ester] | 6 | 41
CCOC(=O)c1[nH]cc2c1NC1=C(C(=O)CCC1)C2c1ccc(Sc2nc3cc(OC(F)F)ccc3[nH]2)o1 (stereo not drawn) [Example 126, 9-[5-(5-Difluoromethoxy-1H-benzimidazol-2-ylsulfanyl)-furan-2-yl]-8-oxo-4,5,6,7,8,9-hexahydro-2H-pyrrolo[3,4-b]quinoline-3-carboxylic acid ethyl ester] | 13 | 41
CC(C)C1CC(=O)C2=C(C1)Nc1n[nH]cc1C2c1ccc(Sc2nc3ccccc3[nH]2)o1 (stereo not drawn) [Example 31, 4-[5-(1H-Benzimidazol-2-ylsulfanyl)-furan-2-yl]-7-isopropyl-2,4,6,7,8,9-hexahydro-pyrazolo[3,4-b]quinolin-5-one; compound with trifluoro-acetic acid] | 4 | 14
O=C1CNCC2=C1C(c1ccc(Sc3nc4cc(C(F)(F)F)ccc4[nH]3)o1)c1c[nH]nc1N2 (stereo not drawn) [Example 97] | 47 | 292
COc1ccc(C2CC(=O)C3=C(C2)Nc2n[nH]cc2C3c2ccc(Sc3nc4ccccc4[nH]3)o2)cc1 (stereo not drawn) [Example 32, 4-[5-(1H-Benzimidazol-2-ylsulfanyl)-furan-2-yl]-7-(4-methoxy-phenyl)-2,4,6,7,8,9-hexahydro-pyrazolo[3,4-b]quinolin-5-one; compound with trifluoro-acetic acid] | 50 | 125
Cc1ccc2[nH]c(Sc3ccc(C4C5=C(CC(C)(C)CC5=O)Nc5n[nH]cc54)s3)nc2c1 (stereo not drawn) [Example 102, 7,7-Dimethyl-4-[5-(5-methyl-1H-benzoimidazol-2-ylsulfanyl)-thiophen-2-yl]-2,4,6,7,8,9-hexahydro-pyrazolo[3,4-b]quinolin-5-one] | 45 | 596
CCOC(=O)c1[nH]cc2c1NC1=C(C(=O)CN(C(=O)OC(C)(C)C)C1)C2c1ccc(Sc2nc3cc(Cl)ccc3[nH]2)o1 (stereo not drawn) [Example 130] | 37 | 434
Cc1nc(Sc2ccc(C3C4=C(CCCC4=O)Nc4n[nH]cc43)o2)[nH]c1C (stereo not drawn) [Example 98, 4-[5-(4,5-Dimethyl-1H-imidazol-2-ylsulfanyl)-furan-2-yl]-2,4,6,7,8,9-hexahydro-pyrazolo[3,4-b]quinolin-5-one] | 231 | 338
O=C1CC(c2ccc(Cl)cc2Cl)CC2=C1C(c1ccc(Sc3nc4ccccc4[nH]3)o1)c1c[nH]nc1N2 (stereo not drawn) [Example 33, 4-[5-(1H-Benzimidazol-2-ylsulfanyl)-furan-2-yl]-7-(2,4-dichloro-phenyl)-2,4,6,7,8,9-hexahydro-pyrazolo[3,4-b]quinolin-5-one; compound with trifluoro-acetic acid] | 32 | 179
O=C1CCCCC2=C1C(c1ccc(Sc3nc4ccccc4[nH]3)o1)c1c[nH]nc1N2 (stereo not drawn) [Example 41, 4-[5-(1H-Benzoimidazol-2-ylsulfanyl)-furan-2-yl]-4,6,7,8,9,10-hexahydro-2H-1,2,10-triaza-cyclohepta[f]inden-5-one; compound with trifluoro-acetic acid] | 10 | 29
CC1(C)CCC2=C(C1=O)C(c1ccc(Sc3nc4ccccc4[nH]3)o1)c1c[nH]nc1N2 (stereo not drawn) [Example 30, 4-[5-(1H-Benzimidazol-2-ylsulfanyl)-furan-2-yl]-6,6-dimethyl-2,4,6,7,8,9-hexahydro-pyrazolo[3,4-b]quinolin-5-one; compound with trifluoro-acetic acid] | 5 | 20

Continued by falling IC50 (Aurora1 (Aurora-B)), values first:

IC50 (Aurora1 (Aurora-B)) [nM] | IC50 (Aurora2 (Aurora-A)) [nM] | SMILES
1220 | 9810 | Cn1c(-c2ccc(Cl)cc2)cnc1Sc1ccc(C2C3=C(CNCC3=O)Nc3n[nH]cc32)o1 (stereo not drawn) [Example 94, 4-{5-[5-(4-Chloro-phenyl)-1-methyl-1H-imidazol-2-ylsulfanyl]-furan-2-yl}-2,4,6,7,8,9-hexahydro-pyrazolo[3,4-b]-1,7-naphthyridin-5-one; compound with trifluoro-acetic acid]
194 | 670 | CC1(C)CC(=O)C2=C(C1)Nc1n[nH]cc1C2c1ccc(Sc2nc3cc(Cl)ccc3o2)o1 (stereo not drawn) [Example 90, 4-[5-(5-Chloro-benzoxazol-2-ylsulfanyl)-furan-2-yl]-7,7-dimethyl-2,4,6,7,8,9-hexahydro-pyrazolo[3,4-b]quinoline-5-one]
145 | 1940 | O=C1CNCC2=C1C(c1ccc(Sc3nc4ccccc4[nH]3)o1)c1c[nH]nc1N2CC(O)CN1CCOCC1 (stereo not drawn) [Example 52, 4-[5-(1H-Benzimidazol-2-ylsulfanyl)-furan-2-yl]-9-(2-hydroxy-3-morpholin-4-yl-propyl)-2,4,6,7,8,9-hexahydro-pyrazolo[3,4-b]-1,7-naphthyridin-5-one; compound with trifluoro-acetic acid]
121 | 331 | Cc1c[nH]c(Sc2ccc(C3C4=C(CCCC4=O)Nc4n[nH]cc43)o2)n1 (stereo not drawn) [Example 78, 4-[5-(4-methyl-1H-imidazol-2-ylsulfanyl)-furan-2-yl]-2,4,6,7,8,9-hexahydro-pyrazolo[3,4-b]quinolin-5-one; compound with trifluoro-acetic acid]
93 | 566 | CCOC(=O)c1[nH]cc2c1NC1=C(C(=O)CN(C(=O)OC(C)(C)C)C1)C2c1ccc(Sc2nc3cc(OC(F)F)ccc3[nH]2)o1 (stereo not drawn) [Example 127]
72 | 813 | CCOC(=O)c1[nH]cc2c1NC1=C(C(=O)CNC1)C2c1ccc(Sc2nc3cc(O)ccc3[nH]2)o1 (stereo not drawn) [Example 123, 9-[5-(5-Hydroxy-1H-benzimidazol-2-ylsulfanyl)-furan-2-yl]-8-oxo-4,5,6,7,8,9-hexahydro-2H-pyrrolo[3,4-b]-1,7-naphthyridine-3-carboxylic acid ethyl ester hydrochloride]
11 | 41 | COc1ccc(C2CC(=O)C3=C(C2)Nc2n[nH]cc2C3c2ccc(Sc3nc4ccccc4[nH]3)o2)cc1OC (stereo not drawn) [Example 36, 4-[5-(1H-Benzimidazol-2-ylsulfanyl)-furan-2-yl]-7-(3,4-dimethoxy-phenyl)-2,4,6,7,8,9-hexahydro-pyrazolo[3,4-b]quinolin-5-one; compound with trifluoro-acetic acid]
7 | 26 | CCOC(=O)c1[nH]cc2c1NC1=C(C(=O)CNC1)C2c1ccc(Sc2nc3cc(F)cc(F)c3[nH]2)o1 (stereo not drawn) [Example 143, 9-[5-(5,7-Difluoro-1H-benzimidazol-2-ylsulfanyl)-furan-2-yl]-8-oxo-4,5,6,7,8,9-hexahydro-2H-pyrrolo[3,4-b]-1,7-naphthyridine-3-carboxylic acid ethyl ester hydrochloride]
